Results taken from patent US8609610B2, “Inhibitors of the trypsin-like site of the proteasome and methods of use thereof” (Trustees of Dartmouth College, priority 2011, dated 2013).
Read-outs that look alike come from different tables or passages of the source.

Tests used:
Assay type in all cases: cell-based
[1] = target: T1, trypsin-like sites (β2) of proteasome in MM cells (Homo sapiens, UniProt Q99436); assay: PROTEASOMEGLO assay of proteasome inhibition in MM cells; settings: for IC50: 6 hours, >>30 no inhibition at 30 μM, >30 inhibition 10-50% at 30 μM, read-out: IC50 for sites: Tr-L
T1 construct: endogenous in cells; host or cells: NCI-H929, RPMI-8226 and other MM cell lines
T1 sequence (Q99436 44-277): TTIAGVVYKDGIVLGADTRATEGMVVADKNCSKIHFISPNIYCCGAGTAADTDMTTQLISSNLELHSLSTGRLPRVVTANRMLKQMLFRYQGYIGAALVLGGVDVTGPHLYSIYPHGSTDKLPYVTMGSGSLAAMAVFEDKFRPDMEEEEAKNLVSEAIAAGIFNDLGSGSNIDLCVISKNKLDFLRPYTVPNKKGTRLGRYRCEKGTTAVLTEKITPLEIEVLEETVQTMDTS

[2] = test system: trypsin-like sites (β2) of proteasome in MM cells; assay: as above
[3] = test system: T2, chymotrypsin-like sites (β5) of proteasome in MM cells; assay: as above; settings: 6 hours, >>30 no inhibition at 30 μM, >30 inhibition 10-50% at 30 μM, read-out: IC50 for sites: Chym-L
T2 construct: other: NCI-H929; bortezomib 100 nM 1 h; bortezomib 11 nM 1 h; bortezomib 3.7 nM 1 h; bortezomib 33 nM 1 h; other: NCI-H9

[4] = test system: peripheral blood mononuclear cells (PBMNCs); assay: CELL TITER-GLO viability of PBMNCs; settings: cells from three donors
Procedure: RPMI-8226 and NCI-H929 cells were cultured in RPMI-1640 supplemented with 10% fetal bovine serum, penicillin, streptomycin, and plasmocin in 5% CO2 humidified incubator. HEK-293T cells were cultured in DMEM containing 10% fetal calf serum, 10 units/mL penicillin, and 10 μg/mL streptomycin in a 7% CO2 humidified incubator. Viability of multiple myeloma cells was measured with ALAMAR BLUE mitochondrial dye conversion assay. Viability of peripheral blood mononuclear cells (PBMNCs) was measured using CELL TITER-GLO luminescent cell viability assay (Promega), which is based on quantification of ATP present in the cells. Caspase-3/7 activity was measured using APO-ONE 3/7 homogeneous assay (Promega).

In the case of Cc1c(O)cccc1C(=O)N[C@H](C(=O)N[C@@H](CO)C(=O)N[C@@H](CCCNC(=N)N)C(=O)[C@@]1(C)CO1)C(C)C [NC-022, HMB-Val-Ser-Arg-ek], the inhibition at 3 µM ([1]; 3 μM NC-022, within 4-6 hours after addition) is reported as 90%, the “inhibition of trypsin-like activity by NC-022 treatment” value ([1]; NCI-H929 and KMS-12-BM, 5 hours after NC-022 addition) is reported as “that trypsin-like activity was inhibited by >90% but inhibition of the chymotrypsin-like activity was not altered by NC-022 treatment” and the “inhibition of trypsin-like activity in live cells” value ([1]; NCI-H929 cells treated overnight) is reported as “sub-micromolar concentrations”. For the same compound, the IC50 ([1]; NCI-H929 cells) was 0.9 µM, the IC50 ([1]; RPMI-8226 cells) was 24 µM and the “difference in IC50 for trypsin-like activity between NCI-H929 and RPMI-8226” value [2] was 25 fold. The “time to steady-state proteasome inhibition” value ([2]; RPMI-8226 cells) was greater than 6 h, the IC50 ([3]; NCI-H929 cells) was greater than 30 µM and the IC50 ([3]; RPMI-8226 cells) was greater than 30 µM. The “sensitization of PBMNCs to bortezomib and carfilzomib” value [4] was “did not sensitize cells”.
